15 compounds from PubChem BioAssay (NCI) can be followed below.

A word on the GI50: it is the concentration that inhibits growth by half. By TGI is commonly meant the concentration giving total growth inhibition.

Experiment in all cases: DTP human tumour cell line panel, 48 h
Assay [1] deals with SK-OV-3 ovarian.
Assay [2] concerns UACC-62 melanoma.
Assay [3] has as its system BT-549 breast.
Assay [4] has as its system HL-60(TB) leukemia.
Assay [5] relates to U251 CNS.
Assay [6] deals with KM12 colon.
Assay [7] relates to OVCAR-3 ovarian.
Assay [8] deals with TK-10 renal.
Assay [9] deals with MDA-MB-435.
Assay [10] relates to HCC-2998 colon.

SMILES strings stand for the structures.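 Five compound concentrations were applied to cells in 96-well plates for 48 hours; endpoints were derived by simple linear interpolation of the resulting dose-response curve. At the GI50, growth is halved. At the TGI there is no net growth.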

On to `COC(=O)/C(=C\c1c(-c2ccccc2)[nH]c2ccccc12)S(C)(=O)=O`, for which the GI50 in [1] was 12.1 µM; in [2] it was 3.34 µM; in assay [3], 4.29 µM; in assay [4] it was 3.38 µM; in assay [5] it was 3.62 µM; in [6], 1.48 µM. The GI50 in assay [7] was 1.92 µM; in assay [8], 7.71 µM; in assay [9], 0.671 µM; in assay [10], 8.78 µM. In addition, the TGI in [1] was 75.5 µM; in [2], 17 µM; in [3] it was 78.8 µM; in assay [4] it was 15.1 µM; in assay [5] it was 18.3 µM; in assay [6], 4.42 µM. For the same compound, the TGI is 3.97 µM in assay [7], above 100 µM in [8], 4.77 µM in [9] and 22.4 µM in [10].
In the case of `CNC(=O)c1cc2c(Oc3ccc(NC(=S)NC(=O)Cc4ccccc4)cc3F)ccnc2cc1OC`, the GI50 in assay [1] is 5.24 µM; in assay [2] it was 3.43 µM; in [3], 2.91 µM; in assay [4], above 100 µM; in assay [5], above 100 µM; in assay [6], 3.91 µM. The GI50 in assay [7] was above 28.6 µM; in [8], 5.99 µM; in [9] it was above 27.6 µM; in assay [10] it was above 100 µM. In addition, the TGI is above 100 µM in [1]; above 100 µM in [2]; above 28.7 µM in [3]; above 100 µM in assay [4]; above 100 µM in assay [5]; above 100 µM in [6]. Besides, the total growth inhibition concentration (TGI) in assay [7], in [8], in assay [9] and in assay [10] was above 100 µM in each case.
Take `CC1(C)N=C(N)N=C(N)N1c1ccc(Cl)c(Cl)c1`: the GI50 in assay [1] is 0.83 µM; in [2], 0.612 µM; in [3], 6.66 µM; in assay [4], 6.27 µM; in [5], 0.0887 µM; in assay [6], 0.648 µM. The figures for the GI50 in assay [7], in assay [9] and in assay [10] were 5.27 µM, 0.0644 µM and 0.508 µM, respectively. Besides, the TGI in assay [1], in assay [2], in assay [3], in assay [4], in assay [5] and in assay [6] was above 100 µM in each case. Moreover, the TGI in assay [7] was above 100 µM; in assay [8], above 100 µM; in [9], above 100 µM; in assay [10], above 40.7 µM.
Take `CN(C)CCNc1nc2ccccc2c2occc12`: the GI50 was 85.1 µM in assay [1]; 16.6 µM in [2]; above 100 µM in assay [3]; 49.6 µM in assay [4]; 45.3 µM in assay [5]; 51.7 µM in [6]. The GI50 in assay [7] was 97.2 µM; in [8], 60.5 µM; in assay [9], 54.5 µM; in assay [10] it was 36 µM. The TGI in assay [1] is above 100 µM; in assay [2], 34.3 µM; in assay [3], above 100 µM; in assay [4], above 100 µM; in [5], above 100 µM; in [6], above 100 µM. In addition, the TGI was above 100 µM in [7], above 100 µM in assay [8], above 100 µM in [9] and 89.5 µM in assay [10].
Turning to `COc1ccc(-c2nc(-c3nc4ccc(C(F)(F)F)cc4[nH]3)c3ccccn23)cc1`, the GI50 in assay [1] is above 100 µM; in assay [2], 51.1 µM; in [3], above 100 µM; in assay [4], above 100 µM; in assay [5] it was above 100 µM; in assay [6], 36.4 µM. Moreover, the GI50 is above 100 µM in [7], above 100 µM in assay [8], 47 µM in assay [9] and 51.8 µM in assay [10]. In addition, the TGI in assay [1], in assay [2], in assay [3], in assay [4], in assay [5] and in assay [6] was above 100 µM each time. The TGI in assay [7], in assay [8], in assay [9] and in assay [10] was above 100 µM in each case.
On to `N=C(N)SCc1ccc([N+](=O)[O-])cc1[N+](=O)[O-]`, for which the GI50 in assay [1] was 20.8 µM; in [2] it was 11.3 µM; in assay [3], 7.35 µM; in assay [4], 3.38 µM; in assay [5] it was 19.2 µM; in assay [6], 9.5 µM. Further, the GI50 in assay [7] was 4.54 µM; in assay [8], 5.9 µM; in assay [9], 11.8 µM; in assay [10], 6.05 µM. Besides, the total growth inhibition concentration (TGI) in assay [1] was 53.7 µM; in assay [2], 25.3 µM; in assay [3], 28.6 µM; in assay [4] it was 17.3 µM; in [5], above 100 µM; in [6], 22.7 µM. Besides, the concentration for total growth inhibition (TGI) was 15.2 µM in assay [7], 19.7 µM in [8], 29.3 µM in [9] and 18.1 µM in [10].
In the case of `C[C@]12CC[C@@H]3c4ccc(O)cc4CC[C@H]3[C@@H]1CC[C@@H]2NS(=O)(=O)c1ccc2ccccc2c1`, the GI50 in assay [1] is 5.79 µM; in [2], 1.75 µM; in [3], 2.92 µM; in [4] it was 3.31 µM; in assay [5] it was 3.6 µM; in assay [6], 1.92 µM. In addition, the GI50 was 2.63 µM in assay [7], 3.52 µM in [8], 2.31 µM in assay [9] and 4.24 µM in assay [10]. Besides, the total growth inhibition concentration (TGI) in assay [1] stood at 36.4 µM; in assay [2], 3.9 µM; in [3] it was 8.59 µM; in assay [4], 13.7 µM; in assay [5], 15.4 µM; in assay [6] it was 4.06 µM. Besides, the TGI in [7] stood at 7.3 µM; in assay [8] it was 12.8 µM; in [9], 5.89 µM; in assay [10], 15.5 µM.
On to `CCCCCSC1C2C(=O)C(Br)=CC13CCNc1c(O)c4c5c(c13)=[N+]2CCC=5C=N4` (centres undefined), for which the GI50 in assay [1] was 3.22 µM; in [2] it was 0.952 µM; in assay [3], 2.61 µM; in assay [4] it was 0.671 µM; in [5] it was 2.56 µM; in assay [6], 2.53 µM. The GI50 in assay [7] was 0.405 µM; in assay [8] it was 2.98 µM; in assay [9], 0.304 µM; in [10], 1.25 µM. Moreover, the TGI turned out to be 6.43 µM in assay [1]; 3.75 µM in assay [2]; 4.96 µM in assay [3]; 2.4 µM in assay [4]; 5.67 µM in [5]; 6.26 µM in assay [6]. The TGI came out at 1.44 µM in assay [7], 5.34 µM in assay [8], 0.571 µM in assay [9] and 3.88 µM in [10].
As to `FC(F)(F)c1[nH]ncc1-c1nc2ccc3[nH]ncc3c2c2c1CCCC2`, the GI50 is 1.79 µM in assay [1]; 1.02 µM in assay [2]; 1.21 µM in assay [3]; 2.09 µM in [4]; 2.56 µM in assay [5]; 1.19 µM in assay [6]. Further, the GI50 in assay [7] is 2.66 µM; in [8], 1.24 µM; in [9], 1.78 µM; in assay [10], 1.58 µM. In addition, the TGI in assay [1] came to 5.83 µM; in [2] it was 2.83 µM; in assay [3], 2.66 µM; in assay [4], 6.22 µM; in assay [5], 7.5 µM; in assay [6], 11.8 µM. Besides, the concentration for total growth inhibition (TGI) is 6.86 µM in assay [7], 8.27 µM in assay [8], 9.55 µM in assay [9] and 3.89 µM in assay [10].
For `Oc1c(CNCCNCc2cc(Cl)cc(Cc3ccccc3)c2O)cc(Cl)cc1Cc1ccccc1`, the GI50 in assay [1] was 0.462 µM; in assay [2] it was 0.436 µM; in [3], 4.26 µM; in assay [4], 0.43 µM; in assay [5], 0.297 µM; in assay [6] it was 0.34 µM. For the same compound, the GI50 in [7] is 0.428 µM; in assay [8] it was 0.228 µM; in assay [9] it was 0.435 µM; in [10], 0.451 µM. In addition, the concentration for total growth inhibition (TGI) in assay [1] is above 100 µM; in assay [2] it was 10.9 µM; in assay [3] it was 28 µM; in assay [4], 9.84 µM; in assay [5], 14.4 µM; in assay [6] it was 15.2 µM. The TGI is 31.1 µM in [7], above 100 µM in assay [8], 13.2 µM in assay [9] and 10.1 µM in assay [10].
For `CC(=O)NC1=C(Sc2ccc(Cl)cc2)C(=O)c2ccccc2C1=O`, the TGI in assay [1] amounted to 29.1 µM; in assay [2] it was 13.3 µM; in assay [3], 18 µM; in [4] it was 1.63 µM; in assay [5], 14.9 µM; in [6], 16.6 µM. Further, the concentration for total growth inhibition (TGI) was determined as 7.07 µM in [7], 13.5 µM in assay [8], 4.56 µM in assay [9] and 27.8 µM in [10].
Regarding `CCN(CC)c1ccc(/C=C/C=C(/C#N)C(N)=S)cc1`, the GI50 in assay [1] is above 100 µM; in assay [2] it was 15.2 µM; in [3] it was 2.73 µM; in [4], 2.53 µM; in assay [5] it was 7.36 µM; in [6], 9.6 µM. The GI50 is 10.9 µM in [7], 28.7 µM in assay [8], 5.01 µM in [9] and 6.46 µM in [10]. Besides, the TGI was above 100 µM in [1]; 48.8 µM in [2]; 16 µM in assay [3]; 18.9 µM in assay [4]; above 100 µM in assay [5]; above 100 µM in [6]. The TGI in [7], in assay [8], in assay [9] and in [10] was above 100 µM throughout.
`CCOC(=O)c1nc2cc(C(F)(F)F)ccc2[n+]([O-])c1C`: the GI50 in assay [1], in [2], in assay [3], in [4], in assay [5] and in [6] was above 100 µM throughout. The GI50 in assay [7], in [8], in assay [9] and in assay [10] was above 100 µM in each case. Also, the TGI in assay [1], in assay [2], in assay [3], in assay [4], in assay [5] and in assay [6] was above 100 µM in each case. In addition, the TGI in assay [7], in assay [8], in assay [9] and in [10] was above 100 µM in each case.
On to `CC/C=C\C[C@H](O)C/C=C1/C(=O)C=C[C@@H]1C/C=C\CCCC(=O)NC`, for which the GI50 in assay [1] was 2.9 µM; in assay [2], 1.37 µM; in assay [3], 1.91 µM; in assay [4], 1.7 µM; in assay [5] it was 1.3 µM; in assay [6] it was 1.36 µM. Further, the GI50 in assay [7] was 1.2 µM; in assay [8], 2.85 µM; in [9], 1.73 µM; in assay [10], 1.82 µM. Also, the TGI in assay [1] amounted to 8.54 µM; in [2] it was 3.5 µM; in assay [3] it was 4.99 µM; in assay [4], 7.24 µM; in [5], 4.26 µM; in [6], 2.79 µM. The TGI in assay [7] came to 4.11 µM; in [8], 6.49 µM; in assay [9], 6.64 µM; in assay [10] it was 3.35 µM.
As for `CNCCCn1c2c(c3ccc(F)cc3c1=O)C(=O)c1cc(OC)cnc1-2`, the 50% growth inhibitory concentration (GI50) in assay [1] was 0.228 µM; in assay [2] it was 0.608 µM; in assay [3], 0.577 µM; in assay [4] it was 0.221 µM; in assay [5] it was 0.11 µM; in [6], 0.242 µM. Moreover, the GI50 in assay [7] is 0.263 µM; in assay [8], 0.332 µM; in [9] it was 0.471 µM; in assay [10], 1.15 µM. The concentration for total growth inhibition (TGI) was 0.674 µM in assay [1]; 2.68 µM in assay [2]; 4.84 µM in [3]; 0.753 µM in assay [4]; 0.46 µM in [5]; 1.48 µM in [6]. Also, the TGI turned out to be 1.39 µM in assay [7], 1.79 µM in assay [8], 1.81 µM in [9] and 4.17 µM in [10].
